Assay results reported in ChEMBL document CHEMBL1140953, “Anthracene based compounds as new L-type Ca2+ channel blockers: design, synthesis, and full biological profile” (J Med Chem, 2009).
The source made the active and inactive calls. The rule behind the calls is not given here.

Columns and labels:
Rattus norvegicus [1] = organism: Rattus norvegicus; assay: Vasorelaxant activity in Sprague-Dawley rat caudal artery ring assessed as reduction of phenylephrine-induced muscle contractions at 50 uM in Ca2+-free physiological salt solution; assay type: functional, tissue-based
Rattus norvegicus [2] = organism: Rattus norvegicus; assay: Vasorelaxant activity in Sprague-Dawley rat caudal artery ring assessed as reduction of caffeine-induced muscle contractions at 50 uM; assay type: functional, tissue-based
[3] = Vasorelaxant activity in Sprague-Dawley rat caudal artery ring assessed as reduction of KCl-induced muscle contractions at 50 uM relative to control; assay type: functional; parameters: scale not given: the % may be the effect or the level left
[4] = Displacement of (+)-[3H]isradipine from L-type calcium channel in rabbit skeletal muscle cells; parameters: species or system Oryctolagus cuniculus
[5] = target: T1, Voltage-gated L-type calcium channel (Rattus norvegicus, UniProt P22002+Q02485+P27732); assay: Inhibition of L-type calcium channel in Sprague-Dawley rat caudal artery smooth muscle cells at 15 uM by whole cell patch clamp method at 2 Hz
Rattus norvegicus [6] = organism: Rattus norvegicus; assay: Vasorelaxant activity in Sprague-Dawley rat caudal artery ring assessed as reduction of caffeine-induced muscle contractions at 50 uM in Ca2+-free physiological salt solution; assay type: functional, tissue-based
[7] = (§1) Displacement of (-)-[3H]devapamil from L-type calcium channel in rabbit skeletal muscle cells; parameters: species or system Oryctolagus cuniculus
[8] = target: T1, Voltage-gated L-type calcium channel; assay: Inhibition of L-type calcium channel in Sprague-Dawley rat caudal artery smooth muscle cells by whole cell patch clamp method
[9] = target: T1, Voltage-gated L-type calcium channel; assay: Inhibition of L-type calcium channel in Sprague-Dawley rat caudal artery smooth muscle cells assessed as decrease in amplitude at 15 uM by whole cell patch clamp method; conditions: TDE = time-dependent effect
[10] = target: T1, Voltage-gated L-type calcium channel; assay: Inhibition of L-type calcium channel in Sprague-Dawley rat caudal artery smooth muscle cells at 15 uM by whole cell patch clamp method at 4 Hz
[11] = target: T1, Voltage-gated L-type calcium channel; assay: Inhibition of L-type calcium channel in Sprague-Dawley rat caudal artery smooth muscle cells at 15 uM by whole cell patch clamp method at -50 mV voltage
[12] = target: T1, Voltage-gated L-type calcium channel; assay: Inhibition of L-type calcium channel in Sprague-Dawley rat caudal artery smooth muscle cells assessed as inhibition of peak inward current at 15 uM by whole cell patch clamp method at -20 to 40 mV voltage
[13] = target: Voltage-dependent L-type calcium channel subunit alpha-1C (Mus musculus, UniProt Q01815); assay: Inhibition of mouse brain L-type Cav1.2 channel by radioligand binding assay
Oryctolagus cuniculus = organism: Oryctolagus cuniculus; assay: as §1; conditions: concentration not given here
[14] = Displacement of (-)-[3H]devapamil from L-type calcium channel in rabbit smooth skeletal cells relative to verapamil

Sequence of Voltage-dependent L-type calcium channel subunit alpha-1C (Q01815 whole entry): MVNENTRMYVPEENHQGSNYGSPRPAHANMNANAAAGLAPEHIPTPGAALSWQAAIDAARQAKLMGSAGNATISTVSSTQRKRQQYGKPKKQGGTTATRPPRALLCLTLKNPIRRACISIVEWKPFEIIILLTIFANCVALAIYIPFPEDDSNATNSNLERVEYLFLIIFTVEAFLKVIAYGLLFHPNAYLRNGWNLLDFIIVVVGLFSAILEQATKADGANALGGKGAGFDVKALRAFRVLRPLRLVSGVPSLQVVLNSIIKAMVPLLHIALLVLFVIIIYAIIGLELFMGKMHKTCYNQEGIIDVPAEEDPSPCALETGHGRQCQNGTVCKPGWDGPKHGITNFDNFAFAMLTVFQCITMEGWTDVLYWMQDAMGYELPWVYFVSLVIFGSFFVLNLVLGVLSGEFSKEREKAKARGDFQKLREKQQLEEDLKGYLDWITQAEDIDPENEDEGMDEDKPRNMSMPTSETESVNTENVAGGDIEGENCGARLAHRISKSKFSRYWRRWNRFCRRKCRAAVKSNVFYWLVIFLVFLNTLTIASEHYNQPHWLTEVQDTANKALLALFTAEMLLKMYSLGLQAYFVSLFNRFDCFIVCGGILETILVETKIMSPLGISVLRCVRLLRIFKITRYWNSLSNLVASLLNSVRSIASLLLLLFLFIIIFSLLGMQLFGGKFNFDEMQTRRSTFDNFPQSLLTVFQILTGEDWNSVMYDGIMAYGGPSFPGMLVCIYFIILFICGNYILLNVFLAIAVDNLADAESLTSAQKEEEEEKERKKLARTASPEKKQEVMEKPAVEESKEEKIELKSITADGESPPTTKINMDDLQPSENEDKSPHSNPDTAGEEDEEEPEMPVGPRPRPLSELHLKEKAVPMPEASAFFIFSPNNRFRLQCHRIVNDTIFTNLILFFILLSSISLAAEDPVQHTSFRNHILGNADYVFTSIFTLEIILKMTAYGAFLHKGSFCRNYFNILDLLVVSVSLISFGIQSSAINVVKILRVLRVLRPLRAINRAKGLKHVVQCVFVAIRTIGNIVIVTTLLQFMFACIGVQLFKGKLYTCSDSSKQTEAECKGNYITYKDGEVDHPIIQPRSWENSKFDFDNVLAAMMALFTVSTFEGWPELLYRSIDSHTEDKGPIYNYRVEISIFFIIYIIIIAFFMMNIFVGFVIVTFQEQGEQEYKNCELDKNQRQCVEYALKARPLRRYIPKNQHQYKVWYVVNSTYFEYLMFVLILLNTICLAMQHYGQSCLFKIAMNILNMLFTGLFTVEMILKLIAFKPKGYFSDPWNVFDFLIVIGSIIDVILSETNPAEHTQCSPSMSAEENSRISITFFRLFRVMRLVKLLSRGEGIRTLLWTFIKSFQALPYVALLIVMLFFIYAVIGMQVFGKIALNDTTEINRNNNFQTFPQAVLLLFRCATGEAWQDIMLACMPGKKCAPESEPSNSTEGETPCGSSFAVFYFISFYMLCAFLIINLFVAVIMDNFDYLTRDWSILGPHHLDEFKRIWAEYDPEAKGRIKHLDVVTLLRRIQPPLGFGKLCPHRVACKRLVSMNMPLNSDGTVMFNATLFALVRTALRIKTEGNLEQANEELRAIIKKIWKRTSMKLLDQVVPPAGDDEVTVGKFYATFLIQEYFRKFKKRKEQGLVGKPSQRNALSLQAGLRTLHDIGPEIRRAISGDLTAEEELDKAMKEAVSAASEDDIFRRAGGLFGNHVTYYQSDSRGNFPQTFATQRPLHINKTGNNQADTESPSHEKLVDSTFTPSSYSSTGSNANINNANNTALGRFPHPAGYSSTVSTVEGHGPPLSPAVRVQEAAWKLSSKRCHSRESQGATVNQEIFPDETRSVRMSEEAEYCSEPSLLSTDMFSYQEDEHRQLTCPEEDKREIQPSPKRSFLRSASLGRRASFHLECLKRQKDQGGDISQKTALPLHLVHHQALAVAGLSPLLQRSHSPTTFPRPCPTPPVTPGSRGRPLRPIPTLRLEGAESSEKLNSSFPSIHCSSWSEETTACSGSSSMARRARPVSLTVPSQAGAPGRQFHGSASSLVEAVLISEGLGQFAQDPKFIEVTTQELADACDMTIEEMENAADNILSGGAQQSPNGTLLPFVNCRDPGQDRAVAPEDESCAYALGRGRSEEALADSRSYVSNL

Structure (SMILES) | Activity (Rattus norvegicus [1]) | Activity (Rattus norvegicus [2]) | also measured
N#CC12c3ccccc3C(c3ccccc31)C1C(=O)NC(=O)C12 (configuration not stated) | Active | Active | 
O=C1NC(=O)C2C1C1c3ccccc3C2([N+](=O)[O-])c2ccccc21 (configuration not stated) | Active | Active | 
O=C1NC(=O)C2C1C1c3ccccc3C2(Cl)c2ccccc21 (configuration not stated) | Active | Active | 
O=CC12c3ccccc3C(c3ccccc31)C1C(=O)NC(=O)C12 (configuration not stated) | Active | Active | 
O=C1NC(=O)C2C1C1c3ccccc3C2(CO)c2ccccc21 (configuration not stated) | Active | Active | 
O=C1NC(=O)C2C3c4ccccc4C(c4cccc(Cl)c43)C12 (configuration not stated) | Active | Active | Activity [3]: 90%
Cc1ccc2c(c1)C1c3ccccc3C2C2C(=O)NC(=O)C12 (configuration not stated) | Active | Active | Activity [3]: 90%
C#CCN1C(=O)C2C3c4ccccc4C(c4ccccc43)C2C1=O (configuration not stated) | Active | Active | 
O=C1NC(=O)C2C3c4ccccc4C(c4ccc(Cl)cc43)C12 (configuration not stated) | inactive |  | IC50 [4]: 6.3 µM; Activity [5]: Active; Activity (Rattus norvegicus [6]): inactive; IC50 [7]: 5.6 µM; IC50 [8]: 16.5 µM; Activity ([8]; rat): Dose-dependent effect; Activity [3]: 100%; Activity [9]: tde; Activity [10]: Active; Activity [11]: Active; Activity [12]: Active; IC50 [13]: 19.4 µM
O=C1NC(=O)C2C3c4ccccc4C(c4ccccc43)C12 (configuration not stated) | Active | Active | 
CC12c3ccccc3C(c3ccccc31)C1C(=O)NC(=O)C12 (configuration not stated) | Active | Active | 
COc1ccc(CCN(C)CCCC(C#N)(c2ccc(OC)c(OC)c2)C(C)C)cc1OC (configuration not stated) [VERAPAMIL] |  |  | inhibition (Oryctolagus cuniculus): 100%; IC50 [14]: 0.0602 µM
